Drawing on PubChem BioAssay (NCI), this text covers TGI and GI50 for 16 compounds.

Several values for one entry are separate records, joined by “and”; a condition that tells them apart may be missing. Identical values can stand only once.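 Where inhibition never reached the appropriate level, the endpoint shown equals the highest concentration tested. Otherwise, values were interpolated linearly from a five-concentration, 48-hour dose response in 96-well plates. GI50 marks 50% less growth. TGI marks complete inhibition of growth.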

Some test systems named below: CCRF-CEM leukemia; COLO 205 colon; HOP-62 NSCLC; HT29 colon; IGROV1 ovarian; M14 melanoma; MCF7 breast; NCI-H460 lung; SK-MEL-5 melanoma; SN12C renal; UACC-62 melanoma.
Holding throughout (experiment): NCI anticancer screen, dose series, 48 h

For `CCCCC(CC)C(=O)Oc1ccc(C(=O)c2ccccc2)c(O)c1` (stereo not drawn), the TGI with CCRF-CEM leukemia, with COLO 205 colon, in the assay on HOP-62 NSCLC, in the assay on HT29 colon, with IGROV1 ovarian and in the assay on M14 melanoma was greater than 100 µM each time. Further, the TGI with MCF7 breast, in the assay on NCI-H460 lung, in the assay with SK-MEL-5 melanoma, in the assay on SN12C renal and in the assay on UACC-62 melanoma was greater than 100 µM each time.
For the compound `C[C@@]12CC[C@@H](O)C[C@@H]1CC[C@H]1[C@H]2CC[C@@]2(C)[C@H](c3ccc(=O)oc3)CC[C@@]12O`, the GI50 with HOP-62 NSCLC, with HT29 colon, in the assay on IGROV1 ovarian, in the assay on M14 melanoma, in the assay with MCF7 breast and in the assay on SK-MEL-5 melanoma was less than 0.01 µM each time. Moreover, the GI50 is less than 0.01 µM in the assay on SN12C renal and less than 0.0135 µM in the assay on UACC-62 melanoma. Also, the TGI with HOP-62 NSCLC came to 0.0156 µM; in the assay with HT29 colon it was 0.0467 µM; in the assay on IGROV1 ovarian, 0.171 µM; in the assay on M14 melanoma it was 0.0564 µM; with MCF7 breast it was 0.0932 µM; with SK-MEL-5 melanoma, 0.0141 µM. In addition, the TGI in the assay with SN12C renal came to 0.0272 µM; in the assay on UACC-62 melanoma, 0.0435 µM.
Turning to `CCOC(=O)c1sc2nc(SC)nc3c2c1NC(=O)CN3c1ccc(F)cc1`, the TGI is 78.4 µM with CCRF-CEM leukemia; greater than 100 µM in the assay with COLO 205 colon; 33.7 µM with HOP-62 NSCLC; greater than 100 µM in the assay with HT29 colon; greater than 100 µM in the assay with IGROV1 ovarian; greater than 100 µM in the assay with M14 melanoma. Also, the TGI with MCF7 breast was greater than 100 µM; in the assay on NCI-H460 lung, greater than 100 µM; in the assay with SK-MEL-5 melanoma, greater than 100 µM; with SN12C renal it was 69.1 µM; in the assay with UACC-62 melanoma, greater than 100 µM.
As for `CCCCCCCCCCCCCCCCCCN(C)CC(COC)OP(=O)([O-])OCC[N+](C)(C)C` (stereo not drawn), the TGI in the assay on CCRF-CEM leukemia was determined as 5.16 µM; in the assay on COLO 205 colon it was 2.6 µM; in the assay on HOP-62 NSCLC, 5.17 µM; with HT29 colon, 4.66 µM; in the assay on IGROV1 ovarian it was 1.52 µM; with M14 melanoma, 15 µM. Further, the TGI was 14.8 µM in the assay on MCF7 breast; 2.35 µM in the assay with NCI-H460 lung; 23.7 µM with SK-MEL-5 melanoma; 14.6 µM in the assay on SN12C renal; 14.9 µM with UACC-62 melanoma.
As for `O=C1c2cc3c(cc2[C@@H]2C(O)[C@H]4O[C@H]4C4CCN1C42)OCO3` (stereo partly drawn), the TGI in the assay on CCRF-CEM leukemia, in the assay on COLO 205 colon, with HOP-62 NSCLC, in the assay on HT29 colon, in the assay on IGROV1 ovarian and in the assay with M14 melanoma was greater than 37.5 µM each time. For the same compound, the TGI with NCI-H460 lung, with SN12C renal and in the assay with UACC-62 melanoma was greater than 37.5 µM throughout.
Turning to `Cc1ccc(C(=O)NC2C(=O)NC(C(C)C)C(=O)N3CCCC3C(=O)N(C)CC(=O)N(C)C(C(C)C)C(=O)OC2C)c2c1Oc1c(c(C(=O)NC3C(=O)NC(C(C)C)C(=O)N4CCCC4C(=O)N(C)CC(=O)N(C)C(C(C)C)C(=O)OC3C)c3nc(-c4ccccc4)c(=O)oc3c1C)N2` (stereo not drawn), the TGI in the assay on CCRF-CEM leukemia was determined as 0.697 µM; in the assay on COLO 205 colon, 0.0295 µM; in the assay with HOP-62 NSCLC it was 0.00223 µM; in the assay on IGROV1 ovarian, 13.3 µM; in the assay with MCF7 breast, 0.0116 µM; in the assay with SK-MEL-5 melanoma, 0.0149 µM. In the assay with SN12C renal, the TGI was 0.0442 µM and 0.312 µM.
For `c1ccc(-c2cc3nc4ccccc4nc3cc(-c3ccccc3)[nH][nH]2)cc1`, the TGI was greater than 100 µM with CCRF-CEM leukemia; greater than 100 µM in the assay on COLO 205 colon; 66.9 µM with HOP-62 NSCLC; greater than 100 µM in the assay with HT29 colon; greater than 100 µM in the assay with IGROV1 ovarian; greater than 100 µM in the assay on M14 melanoma. For the same compound, the TGI with MCF7 breast, in the assay on NCI-H460 lung, in the assay on SK-MEL-5 melanoma, in the assay on SN12C renal and in the assay with UACC-62 melanoma was greater than 100 µM throughout.
As to `Nc1[nH]c(=O)nc2c1cnn2COCCO`, the TGI in the assay with CCRF-CEM leukemia, with COLO 205 colon, in the assay with HT29 colon, in the assay with IGROV1 ovarian, in the assay with M14 melanoma and in the assay on NCI-H460 lung was greater than 100 µM throughout. The TGI with SK-MEL-5 melanoma and with SN12C renal was greater than 100 µM in each case.
Regarding `C/C=C\C1OC1(C)c1cc(=O)c2c(C)cc3c(c2o1)C(=O)c1c(O)c(C2CC(C)(N(C)C)C(OC(C)=O)C(C)O2)cc(C2CC(N(C)C)C(O)C(C)O2)c1C3=O` (stereo not drawn), the TGI in the assay on CCRF-CEM leukemia was determined as 0.379 µM; in the assay with COLO 205 colon it was 0.00901 µM; in the assay with HOP-62 NSCLC, 0.0121 µM; with HT29 colon, 1.93 µM; in the assay with IGROV1 ovarian, 0.183 µM; with M14 melanoma it was 0.00653 µM. Also, the TGI in the assay with MCF7 breast was found to be 0.0401 µM; with NCI-H460 lung, 0.0129 µM; in the assay with SK-MEL-5 melanoma it was 0.00936 µM; in the assay with SN12C renal, 0.0134 µM; with UACC-62 melanoma, 0.00504 µM.
For the compound `CC1CC(C)(O)C2C3(C)CCCC2(COC3=O)C12CCC1(CCOC1=O)O2` (stereo not drawn), the TGI in the assay on CCRF-CEM leukemia, in the assay on COLO 205 colon, with HOP-62 NSCLC, in the assay with HT29 colon, in the assay on IGROV1 ovarian and in the assay on MCF7 breast was greater than 250 µM each time. Besides, the TGI in the assay with NCI-H460 lung, in the assay on SK-MEL-5 melanoma, in the assay on SN12C renal and with UACC-62 melanoma was greater than 250 µM in each case.
In the case of `COc1cc2cc(C(=O)N3CC(CCl)c4ccc(NO)cc43)[nH]c2c(OC)c1OC` (stereo not drawn), the TGI with CCRF-CEM leukemia is 1.16 µM; in the assay with COLO 205 colon it was 2.04 µM; in the assay with HOP-62 NSCLC, 0.749 µM; in the assay with HT29 colon, 11.8 µM; in the assay on IGROV1 ovarian, 10.3 µM; with M14 melanoma it was 0.768 µM. Further, the TGI with MCF7 breast was greater than 32.8 µM; in the assay on NCI-H460 lung, greater than 37.7 µM; in the assay with SK-MEL-5 melanoma, 0.342 µM; in the assay with SN12C renal it was 11.8 µM; in the assay with UACC-62 melanoma, 0.372 µM.
As to `CCOC(=O)C(C(=O)OCC)c1cc(-c2cc3ccccc3o2)oc(=O)c1C#N`, the TGI is greater than 100 µM in the assay with CCRF-CEM leukemia; 48.7 µM in the assay on COLO 205 colon; 35 µM in the assay on HT29 colon; 80 µM with IGROV1 ovarian; 36.9 µM with M14 melanoma; greater than 100 µM in the assay on NCI-H460 lung. Moreover, the TGI was greater than 100 µM in the assay with SK-MEL-5 melanoma and 62.9 µM in the assay on SN12C renal.
Turning to `CC(C)N(CC(=O)O)CC(=O)O`, the TGI with CCRF-CEM leukemia, in the assay on COLO 205 colon, with HOP-62 NSCLC, with HT29 colon, in the assay on IGROV1 ovarian and in the assay with M14 melanoma was greater than 100 µM in each case. Also, the TGI in the assay on MCF7 breast, with NCI-H460 lung, in the assay on SK-MEL-5 melanoma, in the assay on SN12C renal and in the assay with UACC-62 melanoma was greater than 100 µM in each case.
For the compound `O=C(O)C1=C(CO)Oc2cc3c(cc2C1c1ccc2c(c1)OCO2)OCO3` (stereo not drawn), the TGI with CCRF-CEM leukemia, in the assay with COLO 205 colon, in the assay on HOP-62 NSCLC, with HT29 colon, in the assay on IGROV1 ovarian and with M14 melanoma was greater than 100 µM throughout. Moreover, the TGI with NCI-H460 lung, in the assay with SK-MEL-5 melanoma, in the assay on SN12C renal and with UACC-62 melanoma was greater than 100 µM each time.
`O=P1(Oc2ccc(Cl)cc2Cl)Oc2cc3ccccc3cc2O1`: the TGI in the assay on CCRF-CEM leukemia was greater than 100 µM; with COLO 205 colon it was greater than 100 µM; in the assay with HOP-62 NSCLC, greater than 100 µM; in the assay on HT29 colon it was greater than 100 µM; in the assay on IGROV1 ovarian, greater than 100 µM; with MCF7 breast, greater than 74.4 µM. For the same compound, the TGI in the assay with NCI-H460 lung, in the assay on SK-MEL-5 melanoma, in the assay with SN12C renal and in the assay with UACC-62 melanoma was greater than 100 µM in each case.
In the case of `C=C(C)[C@@H]1CC[C@]2(C(=O)O)CC[C@]3(C)[C@H](CC[C@@H]4[C@@]5(C)C/C(=C/c6ccco6)C(=O)C(C)(C)[C@@H]5CC[C@]43C)[C@@H]12`, the GI50 with COLO 205 colon was 2.15 µM; with HOP-62 NSCLC, 2.77 µM; in the assay on HT29 colon it was 3.05 µM; in the assay on MCF7 breast, 2.62 µM. Also, the TGI with COLO 205 colon is 4.38 µM; in the assay on HOP-62 NSCLC, 31.3 µM; in the assay with HT29 colon, greater than 100 µM; in the assay on MCF7 breast, 10.7 µM.
